From PMC10905675, “INX-315, a Selective CDK2 Inhibitor, Induces Cell Cycle Arrest and Senescence in Solid Tumors” (Cancer Discovery, 2023)

Key:
Test in all cases: SelectScreen LanthaScreen Binding
Conditions in all cases: INX-0315 at 100nM
ABL1 M351T = molecular target: T1, ABL1 M351T (Homo sapiens, UniProt P00519, M351T)
T1 construct: purchased Thermo Fisher Scientific SelectScreen (plus Nanosyn / Reaction Biology for CDK/cyclin lines)
Text: (§1) INX-315 was first evaluated in the SelectScreen Biochemical Kinase Profiling at Thermo Fisher Scientific (Madison, WI). The primary screen consisted of INX-315 dosed at a single concentration of 100 nmol/L in 1% DMSO across each platform within the SelectScreen array of assays, LanthaScreen Eu Kinase Binding Assay; AdaptaScreen; and Z'LyteScreen using preestablished conditions at Thermo Fisher Scientific as shown in Supplementary Table S2. […] The follow-up screen consisted of 10-point dose–response curves for INX-315 from 1 µmol/L to 0.0495 nmol/L.

ACVR2A = molecular target: T2, ACVR2A (Homo sapiens, UniProt P27037)
T2 construct: purchased Thermo Fisher Scientific SelectScreen (plus Nanosyn / Reaction Biology for CDK/cyclin lines)
Text: as §1

ACVR2B = molecular target: T3, ACVR2B (Homo sapiens, UniProt Q13705)
T3 construct: purchased Thermo Fisher Scientific SelectScreen (plus Nanosyn / Reaction Biology for CDK/cyclin lines)
Text: as §1

ANKK1 = molecular target: T4, ANKK1 (Homo sapiens, UniProt Q8NFD2)
T4 construct: purchased Thermo Fisher Scientific SelectScreen (plus Nanosyn / Reaction Biology for CDK/cyclin lines)
Text: as §1

AXL R499C = molecular target: T5, AXL R499C (Homo sapiens, UniProt P30530, R499C)
T5 construct: purchased Thermo Fisher Scientific SelectScreen (plus Nanosyn / Reaction Biology for CDK/cyclin lines)
Text: as §1

BMPR1A (ALK3) = molecular target: T6, BMPR1A (ALK3) (Homo sapiens, UniProt P36894)
T6 construct: purchased Thermo Fisher Scientific SelectScreen (plus Nanosyn / Reaction Biology for CDK/cyclin lines)
Text: as §1

BRAF = molecular target: T7, BRAF (Homo sapiens, UniProt P15056)
T7 construct: purchased Thermo Fisher Scientific SelectScreen (plus Nanosyn / Reaction Biology for CDK/cyclin lines)
Text: as §1

CDK2/cyclin A1 = molecular target: T8, CDK2/cyclin A1 (Homo sapiens, UniProt P24941)
T8 construct: host or cells: HEK293
Text: as §1

CDK2/cyclin O = molecular target: T9, CDK2/cyclin O (Homo sapiens, UniProt P24941)
T9 construct: purchased Thermo Fisher Scientific SelectScreen (plus Nanosyn / Reaction Biology for CDK/cyclin lines)
Text: as §1

CDK3/cyclin E1 = molecular target: T10, CDK3/cyclin E1 (Homo sapiens, UniProt Q00526)
T10 construct: purchased BPS 40103
Text: as §1

DYRK2 = molecular target: T11, DYRK2 (Homo sapiens, UniProt Q92630)
T11 construct: purchased Thermo Fisher Scientific SelectScreen (plus Nanosyn / Reaction Biology for CDK/cyclin lines)
Text: as §1

[1] = molecular target: T12, EGFR (ErbB1) d747-749 A750P (Homo sapiens, UniProt P00533, A750P/DEL747-749)
T12 construct: purchased Thermo Fisher Scientific SelectScreen (plus Nanosyn / Reaction Biology for CDK/cyclin lines)
Text: as §1

EPHA6 = molecular target: T13, EPHA6 (Homo sapiens, UniProt Q9UF33)
T13 construct: purchased Thermo Fisher Scientific SelectScreen (plus Nanosyn / Reaction Biology for CDK/cyclin lines)
Text: as §1

FGFR3 G697C = molecular target: T14, FGFR3 G697C (Homo sapiens, UniProt P22607, G697C)
T14 construct: purchased Thermo Fisher Scientific SelectScreen (plus Nanosyn / Reaction Biology for CDK/cyclin lines)
Text: as §1

GRK1 = molecular target: T15, GRK1 (Homo sapiens, UniProt Q15835)
T15 construct: purchased Thermo Fisher Scientific SelectScreen (plus Nanosyn / Reaction Biology for CDK/cyclin lines)
Text: as §1

HUNK = molecular target: T16, HUNK (Homo sapiens, UniProt P57058)
T16 construct: purchased Thermo Fisher Scientific SelectScreen (plus Nanosyn / Reaction Biology for CDK/cyclin lines)
Text: as §1

ICK = molecular target: T17, ICK (Homo sapiens, UniProt Q9UPZ9)
T17 construct: purchased Thermo Fisher Scientific SelectScreen (plus Nanosyn / Reaction Biology for CDK/cyclin lines)
Text: as §1

KIT D816V = molecular target: T18, KIT D816V (Homo sapiens, UniProt P10721, D816V)
T18 construct: purchased Thermo Fisher Scientific SelectScreen (plus Nanosyn / Reaction Biology for CDK/cyclin lines)
Text: as §1

LATS2 = molecular target: T19, LATS2 (Homo sapiens, UniProt Q9NRM7)
T19 construct: purchased Thermo Fisher Scientific SelectScreen (plus Nanosyn / Reaction Biology for CDK/cyclin lines)
Text: as §1

MAP3K14 (NIK) = molecular target: T20, MAP3K14 (NIK) (Homo sapiens, UniProt Q99558)
T20 construct: purchased Thermo Fisher Scientific SelectScreen (plus Nanosyn / Reaction Biology for CDK/cyclin lines)
T20 sequence (Q99558 whole entry): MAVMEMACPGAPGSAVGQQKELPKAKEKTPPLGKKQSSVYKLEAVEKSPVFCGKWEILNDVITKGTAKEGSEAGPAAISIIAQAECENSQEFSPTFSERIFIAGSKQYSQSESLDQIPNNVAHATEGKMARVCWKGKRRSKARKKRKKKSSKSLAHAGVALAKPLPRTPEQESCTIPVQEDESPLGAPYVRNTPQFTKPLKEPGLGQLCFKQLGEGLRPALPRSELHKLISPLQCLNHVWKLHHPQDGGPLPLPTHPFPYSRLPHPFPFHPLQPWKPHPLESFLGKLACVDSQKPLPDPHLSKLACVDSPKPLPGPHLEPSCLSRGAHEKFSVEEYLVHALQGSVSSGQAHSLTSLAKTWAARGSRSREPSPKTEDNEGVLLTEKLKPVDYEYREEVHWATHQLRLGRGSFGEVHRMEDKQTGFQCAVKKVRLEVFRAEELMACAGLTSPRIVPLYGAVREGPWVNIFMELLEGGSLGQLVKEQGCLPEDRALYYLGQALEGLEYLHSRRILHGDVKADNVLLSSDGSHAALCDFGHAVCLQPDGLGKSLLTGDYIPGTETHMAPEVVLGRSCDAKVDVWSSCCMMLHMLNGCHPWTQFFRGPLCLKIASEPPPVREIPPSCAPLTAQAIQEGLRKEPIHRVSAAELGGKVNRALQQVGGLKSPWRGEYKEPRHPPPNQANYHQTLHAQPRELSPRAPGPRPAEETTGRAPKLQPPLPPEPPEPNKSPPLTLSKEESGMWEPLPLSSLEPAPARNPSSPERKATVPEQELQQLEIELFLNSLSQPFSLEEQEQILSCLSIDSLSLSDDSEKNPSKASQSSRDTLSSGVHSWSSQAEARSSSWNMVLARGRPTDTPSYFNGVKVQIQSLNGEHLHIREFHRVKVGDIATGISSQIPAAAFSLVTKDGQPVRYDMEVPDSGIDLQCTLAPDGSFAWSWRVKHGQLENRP
Text: as §1

MAP3K3 (MEKK3) = molecular target: T21, MAP3K3 (MEKK3) (Homo sapiens, UniProt Q99759)
T21 construct: purchased Thermo Fisher Scientific SelectScreen (plus Nanosyn / Reaction Biology for CDK/cyclin lines)
Text: as §1

MAPK10 (JNK3) = molecular target: T22, MAPK10 (JNK3) (Homo sapiens, UniProt P53779)
T22 construct: purchased Thermo Fisher Scientific SelectScreen (plus Nanosyn / Reaction Biology for CDK/cyclin lines)
T22 sequence (P53779 whole entry): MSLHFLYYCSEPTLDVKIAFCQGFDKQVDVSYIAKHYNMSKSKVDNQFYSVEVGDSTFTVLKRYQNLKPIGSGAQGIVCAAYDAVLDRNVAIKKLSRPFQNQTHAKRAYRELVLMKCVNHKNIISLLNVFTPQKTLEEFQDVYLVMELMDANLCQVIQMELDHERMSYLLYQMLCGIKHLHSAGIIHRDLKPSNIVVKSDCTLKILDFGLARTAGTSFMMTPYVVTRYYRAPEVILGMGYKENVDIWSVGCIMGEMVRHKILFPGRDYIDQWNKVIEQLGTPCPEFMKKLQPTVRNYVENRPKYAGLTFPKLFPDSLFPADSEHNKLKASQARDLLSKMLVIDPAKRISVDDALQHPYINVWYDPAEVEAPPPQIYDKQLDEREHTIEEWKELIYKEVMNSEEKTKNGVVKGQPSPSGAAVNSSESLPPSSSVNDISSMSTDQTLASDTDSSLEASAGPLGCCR
Text: as §1

MAPK9 (JNK2) = molecular target: T23, MAPK9 (JNK2) (Homo sapiens, UniProt P45984)
T23 construct: purchased Thermo Fisher Scientific SelectScreen (plus Nanosyn / Reaction Biology for CDK/cyclin lines)
Text: as §1

MKNK2 (MNK2) = molecular target: T24, MKNK2 (MNK2) (Homo sapiens, UniProt Q9HBH9)
T24 construct: purchased Thermo Fisher Scientific SelectScreen (plus Nanosyn / Reaction Biology for CDK/cyclin lines)
Text: as §1

MYLK (MLCK) = molecular target: T25, MYLK (MLCK) (Homo sapiens, UniProt Q15746)
T25 construct: purchased Thermo Fisher Scientific SelectScreen (plus Nanosyn / Reaction Biology for CDK/cyclin lines)
T25 sequence (Q15746 whole entry): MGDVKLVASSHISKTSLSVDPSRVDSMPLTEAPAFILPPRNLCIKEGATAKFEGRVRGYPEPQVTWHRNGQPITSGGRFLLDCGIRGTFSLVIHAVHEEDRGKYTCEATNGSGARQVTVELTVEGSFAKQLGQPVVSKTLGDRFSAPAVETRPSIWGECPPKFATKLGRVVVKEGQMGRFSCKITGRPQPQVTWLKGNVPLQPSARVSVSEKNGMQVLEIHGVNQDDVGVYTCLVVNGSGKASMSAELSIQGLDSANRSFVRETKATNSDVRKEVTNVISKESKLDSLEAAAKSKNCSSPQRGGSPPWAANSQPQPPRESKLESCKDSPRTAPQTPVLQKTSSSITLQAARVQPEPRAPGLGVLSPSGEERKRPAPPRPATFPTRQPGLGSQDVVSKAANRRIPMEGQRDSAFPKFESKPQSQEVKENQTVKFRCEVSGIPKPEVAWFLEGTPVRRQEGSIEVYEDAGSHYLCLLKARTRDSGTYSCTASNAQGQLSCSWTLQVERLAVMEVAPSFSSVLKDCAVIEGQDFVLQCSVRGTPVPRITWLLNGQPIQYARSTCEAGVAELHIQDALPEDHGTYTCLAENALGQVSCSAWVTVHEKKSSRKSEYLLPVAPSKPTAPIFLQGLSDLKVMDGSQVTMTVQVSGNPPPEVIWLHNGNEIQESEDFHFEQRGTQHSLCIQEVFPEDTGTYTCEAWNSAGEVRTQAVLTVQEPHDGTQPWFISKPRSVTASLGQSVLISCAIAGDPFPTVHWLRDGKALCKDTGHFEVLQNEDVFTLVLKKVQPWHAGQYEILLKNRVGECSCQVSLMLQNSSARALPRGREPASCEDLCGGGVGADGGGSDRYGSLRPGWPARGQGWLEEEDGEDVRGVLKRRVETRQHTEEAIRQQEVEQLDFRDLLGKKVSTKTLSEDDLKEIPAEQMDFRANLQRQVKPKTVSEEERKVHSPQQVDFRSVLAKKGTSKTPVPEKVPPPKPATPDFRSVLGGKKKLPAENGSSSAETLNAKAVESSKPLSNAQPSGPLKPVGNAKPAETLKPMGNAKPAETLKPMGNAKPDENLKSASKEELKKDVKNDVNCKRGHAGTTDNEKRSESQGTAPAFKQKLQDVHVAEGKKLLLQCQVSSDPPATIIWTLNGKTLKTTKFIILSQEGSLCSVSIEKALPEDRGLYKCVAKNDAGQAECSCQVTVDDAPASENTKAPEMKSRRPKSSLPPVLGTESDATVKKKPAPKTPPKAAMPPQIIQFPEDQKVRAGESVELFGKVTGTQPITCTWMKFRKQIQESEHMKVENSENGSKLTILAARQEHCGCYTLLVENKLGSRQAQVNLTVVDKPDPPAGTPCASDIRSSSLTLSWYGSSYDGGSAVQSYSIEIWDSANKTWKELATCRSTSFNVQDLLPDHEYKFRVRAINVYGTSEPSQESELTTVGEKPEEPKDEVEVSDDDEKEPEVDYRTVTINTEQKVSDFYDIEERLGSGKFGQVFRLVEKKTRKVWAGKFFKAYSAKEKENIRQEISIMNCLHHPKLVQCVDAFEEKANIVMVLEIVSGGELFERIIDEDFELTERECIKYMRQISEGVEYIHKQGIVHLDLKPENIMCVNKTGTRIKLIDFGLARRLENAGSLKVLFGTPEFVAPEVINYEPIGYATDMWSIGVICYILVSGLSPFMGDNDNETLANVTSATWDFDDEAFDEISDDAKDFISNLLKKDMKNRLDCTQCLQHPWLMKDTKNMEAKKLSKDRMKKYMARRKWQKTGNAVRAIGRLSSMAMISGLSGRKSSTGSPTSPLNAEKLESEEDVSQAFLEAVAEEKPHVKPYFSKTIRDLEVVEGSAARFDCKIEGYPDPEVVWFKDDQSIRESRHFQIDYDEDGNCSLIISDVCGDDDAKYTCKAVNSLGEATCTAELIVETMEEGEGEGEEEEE
Text: as §1

NUAK2 = molecular target: T26, NUAK2 (Homo sapiens, UniProt Q9H093)
T26 construct: purchased Thermo Fisher Scientific SelectScreen (plus Nanosyn / Reaction Biology for CDK/cyclin lines)
Text: as §1

PKMYT1 = molecular target: T27, PKMYT1 (Homo sapiens, UniProt Q99640)
T27 construct: purchased Thermo Fisher Scientific SelectScreen (plus Nanosyn / Reaction Biology for CDK/cyclin lines)
T27 sequence (Q99640 whole entry): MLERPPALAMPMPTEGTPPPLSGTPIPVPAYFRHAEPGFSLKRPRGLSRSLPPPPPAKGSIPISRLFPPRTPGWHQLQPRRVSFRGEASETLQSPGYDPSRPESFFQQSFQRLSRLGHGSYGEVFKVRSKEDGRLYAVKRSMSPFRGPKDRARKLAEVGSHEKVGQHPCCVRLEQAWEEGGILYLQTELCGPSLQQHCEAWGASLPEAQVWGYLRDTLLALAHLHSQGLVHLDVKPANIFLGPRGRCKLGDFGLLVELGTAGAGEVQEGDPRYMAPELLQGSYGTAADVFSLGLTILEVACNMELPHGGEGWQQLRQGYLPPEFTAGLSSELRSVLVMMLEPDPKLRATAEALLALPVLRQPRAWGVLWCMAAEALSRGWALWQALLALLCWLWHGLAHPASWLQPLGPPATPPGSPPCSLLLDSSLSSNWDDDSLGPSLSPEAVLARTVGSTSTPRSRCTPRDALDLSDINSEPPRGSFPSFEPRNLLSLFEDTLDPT
Text: as §1

RET G691S = molecular target: T28, RET G691S (Homo sapiens, UniProt P07949, G691S)
T28 construct: purchased Thermo Fisher Scientific SelectScreen (plus Nanosyn / Reaction Biology for CDK/cyclin lines)
Text: as §1

RET M918T = molecular target: T29, RET M918T (Homo sapiens, UniProt P07949, M918T)
T29 construct: purchased Thermo Fisher Scientific SelectScreen (plus Nanosyn / Reaction Biology for CDK/cyclin lines)
Text: as §1

SIK3 = molecular target: T30, SIK3 (Homo sapiens, UniProt Q9Y2K2)
T30 construct: purchased Thermo Fisher Scientific SelectScreen (plus Nanosyn / Reaction Biology for CDK/cyclin lines)
Text: as §1

STK32B (YANK2) = molecular target: T31, STK32B (YANK2) (Homo sapiens, UniProt Q9NY57)
T31 construct: purchased Thermo Fisher Scientific SelectScreen (plus Nanosyn / Reaction Biology for CDK/cyclin lines)
Text: as §1

STK38L (NDR2) = molecular target: T32, STK38L (NDR2) (Homo sapiens, UniProt Q9Y2H1)
T32 construct: purchased Thermo Fisher Scientific SelectScreen (plus Nanosyn / Reaction Biology for CDK/cyclin lines)
Text: as §1

TAOK1 = molecular target: T33, TAOK1 (Homo sapiens, UniProt Q7L7X3)
T33 construct: purchased Thermo Fisher Scientific SelectScreen (plus Nanosyn / Reaction Biology for CDK/cyclin lines)
Text: as §1

TLK1 = molecular target: T34, TLK1 (Homo sapiens, UniProt Q9UKI8)
T34 construct: purchased Thermo Fisher Scientific SelectScreen (plus Nanosyn / Reaction Biology for CDK/cyclin lines)
Text: as §1

ULK1 = molecular target: T35, ULK1 (Homo sapiens, UniProt O75385)
T35 construct: purchased Thermo Fisher Scientific SelectScreen (plus Nanosyn / Reaction Biology for CDK/cyclin lines)
T35 sequence (O75385 whole entry): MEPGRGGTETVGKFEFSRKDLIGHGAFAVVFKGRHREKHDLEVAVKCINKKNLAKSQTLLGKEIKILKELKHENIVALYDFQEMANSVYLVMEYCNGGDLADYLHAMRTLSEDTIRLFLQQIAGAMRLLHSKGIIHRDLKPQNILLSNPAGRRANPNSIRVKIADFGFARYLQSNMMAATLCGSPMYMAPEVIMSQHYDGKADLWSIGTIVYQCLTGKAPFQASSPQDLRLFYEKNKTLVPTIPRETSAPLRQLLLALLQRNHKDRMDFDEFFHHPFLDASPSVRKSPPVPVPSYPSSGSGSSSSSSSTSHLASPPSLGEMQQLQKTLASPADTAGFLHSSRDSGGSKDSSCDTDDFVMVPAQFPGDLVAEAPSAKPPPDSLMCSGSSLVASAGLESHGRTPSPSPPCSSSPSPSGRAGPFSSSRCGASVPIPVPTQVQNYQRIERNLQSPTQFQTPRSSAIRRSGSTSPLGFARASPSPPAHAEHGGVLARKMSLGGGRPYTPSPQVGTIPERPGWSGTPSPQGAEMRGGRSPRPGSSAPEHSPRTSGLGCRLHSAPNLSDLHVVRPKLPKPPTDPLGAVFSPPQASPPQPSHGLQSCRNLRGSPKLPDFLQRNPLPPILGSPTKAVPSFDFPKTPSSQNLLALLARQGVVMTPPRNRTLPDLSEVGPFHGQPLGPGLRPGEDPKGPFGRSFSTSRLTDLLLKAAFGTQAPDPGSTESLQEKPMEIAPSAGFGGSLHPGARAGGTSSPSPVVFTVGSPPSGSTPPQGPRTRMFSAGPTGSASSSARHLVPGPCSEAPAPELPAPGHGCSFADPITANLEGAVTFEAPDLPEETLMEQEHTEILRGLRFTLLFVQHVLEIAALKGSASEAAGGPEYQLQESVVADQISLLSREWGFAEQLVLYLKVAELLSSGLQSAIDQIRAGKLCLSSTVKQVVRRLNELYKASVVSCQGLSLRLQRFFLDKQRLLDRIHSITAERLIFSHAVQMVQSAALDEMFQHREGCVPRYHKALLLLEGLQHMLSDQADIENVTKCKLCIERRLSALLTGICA
Text: as §1

ULK2 = molecular target: T36, ULK2 (Homo sapiens, UniProt Q8IYT8)
T36 construct: purchased Thermo Fisher Scientific SelectScreen (plus Nanosyn / Reaction Biology for CDK/cyclin lines)
Text: as §1

WNK1 = molecular target: T37, WNK1 (Homo sapiens, UniProt Q9H4A3)
T37 construct: purchased Thermo Fisher Scientific SelectScreen (plus Nanosyn / Reaction Biology for CDK/cyclin lines)
Text: as §1

WNK3 = molecular target: T38, WNK3 (Homo sapiens, UniProt Q9BYP7)
T38 construct: purchased Thermo Fisher Scientific SelectScreen (plus Nanosyn / Reaction Biology for CDK/cyclin lines)
Text: as §1

## NS(=O)(=O)c1ccc(Nc2ncc3cc4n(c3n2)C2(CCCCC2)C(=O)NN4)cc1 [INX-315]
ABL1 M351T
  inhibition at 0.1 µM: 13%
ACVR2A
  inhibition at 0.1 µM: 3%
ACVR2B
  inhibition at 0.1 µM: -2%
ANKK1
  inhibition at 0.1 µM: 2%
AXL R499C
  inhibition at 0.1 µM: 1%
BMPR1A (ALK3)
  inhibition at 0.1 µM: 8%
BRAF
  inhibition at 0.1 µM: -1%
CDK2/cyclin A1
  inhibition at 0.1 µM: 94%
CDK2/cyclin O
  inhibition at 0.1 µM: 98%
CDK3/cyclin E1
  inhibition at 0.1 µM: 88%
DYRK2
  inhibition at 0.1 µM: -4%
[1]
  inhibition at 0.1 µM: 12%
EPHA6
  inhibition at 0.1 µM: 10%
FGFR3 G697C
  inhibition at 0.1 µM: 13%
GRK1
  inhibition at 0.1 µM: 27%
HUNK
  inhibition at 0.1 µM: -5%
ICK
  inhibition at 0.1 µM: 28%
KIT D816V
  inhibition at 0.1 µM: 34%
LATS2
  inhibition at 0.1 µM: 8%
MAP3K14 (NIK)
  inhibition at 0.1 µM: -2%
MAP3K3 (MEKK3)
  inhibition at 0.1 µM: 18%
MAPK10 (JNK3)
  inhibition at 0.1 µM: 12%
MAPK9 (JNK2)
  inhibition at 0.1 µM: 4%
MKNK2 (MNK2)
  inhibition at 0.1 µM: 2%
MYLK (MLCK)
  inhibition at 0.1 µM: 6%
NUAK2
  inhibition at 0.1 µM: 35%
PKMYT1
  inhibition at 0.1 µM: -2%
RET G691S
  inhibition at 0.1 µM: 35%
RET M918T
  inhibition at 0.1 µM: 42%
SIK3
  inhibition at 0.1 µM: 2%
STK32B (YANK2)
  inhibition at 0.1 µM: 3%
STK38L (NDR2)
  inhibition at 0.1 µM: 0%
TAOK1
  inhibition at 0.1 µM: 22%
TLK1
  inhibition at 0.1 µM: 0%
ULK1
  inhibition at 0.1 µM: 1%
ULK2
  inhibition at 0.1 µM: 3%
WNK1
  inhibition at 0.1 µM: 4%
WNK3
  inhibition at 0.1 µM: 2%
